Marks after values point to notes of the source that are not given here.
System: C57BL/6 male mice
Test: Mitigation of corticosterone (CORT) adverse effects in mouse
Assay type: in vivo
Design: food consumption, group Mean: unit not given here
Settings: for Fat depot weight, Gonadal, Mean / Fat depot weight, Mesenteric, Mean / Fat depot weight, Retroperitoneal, Mean / Fat depot weight, Subcutaneous, Mean / Muscle weight, Quadriceps, Mean / Muscle weight, Tibialis anterior, Mean: post-mortem Day 36
Procedure: A control group received no CORT or SPI-62. Body weight was assessed daily and food consumption twice weekly. Whole body muscle and fat amounts were measured at Days 0, 14, and 28 using an EchoMRI-130H body composition analyzer. Blood samples for fasting glucose and insulin were obtained at Days 1 (pre-dose), 15, 29, and 35. An open field test was conducted on Day 22. A grip strength test was performed on Day 28. After sacrifice on Day 36, gonadal, subcutaneous, retroperitoneal, and mesenteric fat, quadriceps, and tibialis anterior were dissected and weighed, and skin was formalin fixed and paraffin embedded.

## Cn1c(-c2ccc(C(N)=O)cc2F)nnc1C(C)(C)Oc1c(F)cc(Cl)cc1F [SPI-62, 4-(5-(2-(4-chloro-2,6-difluorophenoxy)propan-2-yl)-4-methyl-4H-1,2,4-triazol-3-yl)-3-fluorobenzamide]
1 mg/kg QD + CORT, Day 14
  Whole-body fat content LSM: 0.121^a
  Whole-body muscle content LSM: 0.82^a
1 mg/kg QD + CORT, Day 15
  HOMA-IR LSM: 3.73ª mmol glucose/μU insulin
1 mg/kg QD + CORT, Day 28
  Whole-body fat content LSM: 0.142^ab
  Whole-body muscle content LSM: 0.77^a
1 mg/kg QD + CORT, Day 29
  HOMA-IR LSM: 3.56^ab mmol glucose/μU insulin
1 mg/kg QD + CORT, Day 35
  HOMA-IR LSM: 8.16^b mmol glucose/μU insulin
1 mg/kg QD + CORT
  Fat depot weight, Gonadal, Mean: 10.60 mg/g body weight
  Fat depot weight, Mesenteric, Mean: 6.46 mg/g body weight
  Fat depot weight, Retroperitoneal, Mean: 3.33 mg/g body weight
  Fat depot weight, Subcutaneous, Mean: 4.04 mg/g body weight
  Muscle weight, Quadriceps, Mean: 3.98 mg/g body weight
  Muscle weight, Tibialis anterior, Mean: 1.60 mg/g body weight
10 mg/kg BID + CORT, Day 14
  Whole-body fat content LSM: 0.064^b
  Whole-body muscle content LSM: 0.89^b
10 mg/kg BID + CORT, Day 15
  HOMA-IR LSM: 0.94^b mmol glucose/μU insulin
10 mg/kg BID + CORT, Day 28
  Whole-body fat content LSM: 0.061^b
  Whole-body muscle content LSM: 0.86^b
10 mg/kg BID + CORT, Day 29
  HOMA-IR LSM: 0.94^b mmol glucose/μU insulin
10 mg/kg BID + CORT, Day 35
  HOMA-IR LSM: 2.16^b mmol glucose/μU insulin
10 mg/kg BID + CORT
  Fat depot weight, Gonadal, Mean: 6.02 mg/g body weight
  Fat depot weight, Mesenteric, Mean: 4.73 mg/g body weight
  Fat depot weight, Retroperitoneal, Mean: 2.21 mg/g body weight
  Fat depot weight, Subcutaneous, Mean: 1.95 mg/g body weight
  Muscle weight, Quadriceps, Mean: 5.90 mg/g body weight
  Muscle weight, Tibialis anterior, Mean: 2.36 mg/g body weight
10 mg/kg QD + CORT, Day 14
  Whole-body fat content LSM: 0.061^b
  Whole-body muscle content LSM: 0.87^b
10 mg/kg QD + CORT, Day 15
  HOMA-IR LSM: 1.41^b mmol glucose/μU insulin
10 mg/kg QD + CORT, Day 28
  Whole-body fat content LSM: 0.115^ab
  Whole-body muscle content LSM: 0.80^b
10 mg/kg QD + CORT, Day 29
  HOMA-IR LSM: 1.88^ab mmol glucose/μU insulin
10 mg/kg QD + CORT, Day 35
  HOMA-IR LSM: 2.28^b mmol glucose/μU insulin
10 mg/kg QD + CORT
  Fat depot weight, Gonadal, Mean: 8.44 mg/g body weight
  Fat depot weight, Mesenteric, Mean: 6.23 mg/g body weight
  Fat depot weight, Retroperitoneal, Mean: 2.40 mg/g body weight
  Fat depot weight, Subcutaneous, Mean: 3.35 mg/g body weight
  Muscle weight, Quadriceps, Mean: 5.33 mg/g body weight
  Muscle weight, Tibialis anterior, Mean: 2.14 mg/g body weight
1 mpk QD + CORT, Baseline
  body weight, group Mean: 22.1 g
1 mpk QD + CORT, Day 4
  food consumption, group Mean: 3.26
1 mpk QD + CORT, Day 8
  food consumption, group Mean: 2.92
1 mpk QD + CORT, Day 11
  food consumption, group Mean: 3.09
1 mpk QD + CORT, Day 15
  body weight, group Mean: 21.9 g
  food consumption, group Mean: 3.04
1 mpk QD + CORT, Day 18
  food consumption, group Mean: 2.91
1 mpk QD + CORT, Day 22
  food consumption, group Mean: 3.23
1 mpk QD + CORT, Day 25
  food consumption, group Mean: 3.74
1 mpk QD + CORT, Day 29
  body weight, group Mean: 23.2 g
  food consumption, group Mean: 2.90
1 mpk QD + CORT, Day 32
  food consumption, group Mean: 2.77
1 mpk QD + CORT, Day 35
  body weight, group Mean: 23.8 g
1 mpk QD + CORT, Day 36
  food consumption, group Mean: 3.13
10 mpk BID + CORT, Baseline
  body weight, group Mean: 22.1 g
10 mpk BID + CORT, Day 4
  food consumption, group Mean: 3.36
10 mpk BID + CORT, Day 8
  food consumption, group Mean: 2.88
10 mpk BID + CORT, Day 11
  food consumption, group Mean: 2.92
